Results taken from patent EP3041353B1, “COMPOSITIONS COMPRISING BACTERIOSTATIC AGENTS AND BRILLIANT BLUE G” (priority 2013, dated 2015).

Key:
[1] = tested on: Escherichia coli (E. coli); assay: Bacteriostatic effect of BAK with BBG/BBR: turbidity after 24 h incubation; type: cell-based; set-up: key to Bakterienwachstum nach 24 h Inkubation: +: Bakterienwachstum nach 24 h Inkubation; -: kein Bakterienwachstum nach 24 h Inkubation
Method: (§1) Zur Untersuchung des Einflusses von BBG auf die bakteriostatische Wirkung wurden Bakterien 24 h mit erfindungsgemäßen Zusammensetzungen, Benzalkoniumchlorid (BAK) und Octenidin (Oct) als Bakteriostatikum enthielten, inkubiert. Wenn sich die Inkubationsmischung trübte, wurde das als Bakterienwachstum interpretiert. Zum Vergleich wurde Brillantblau R (BBR) anstelle von BBG eingesetzt. Die Ergebnisse sind in den Tabellen 1-4 wiedergegeben. Tabelle 1: Einfluss von BBG und BBR auf die bakteriostatische Wirkung von BAK gegenüber Escherichia coli (E. coli), + = Bakterienwachstum nach 24 h Inkubation, - = kein Bakterienwachstum nach 24 h Inkubation, R = Brillantblau R (BBR), G = Brillantblau G (BBG).

[2] = tested on: Bacillus megaterium; assay: Bacteriostatic effect of Octenidin with BBG: turbidity after 24 h incubation; type: cell-based; set-up: key: +: Bakterienwachstum nach 24 h Inkubation; -: kein Bakterienwachstum nach 24 h Inkubation; +/-: geringes Wachstum nach 24 h Inkubation
Method: as §1
Tabelle 4: Einfluss von BBG auf die bakteriostatische Wirkung von Octenidin (Oct) gegenüber Gram-positiven Bakterien., + = Bakterienwachstum nach 24 h Inkubation, - = kein Bakterienwachstum nach 24 h Inkubation, +/- = geringes Wachstum nach 24 h Inkubation, BBG = Brillantblau G.

[3] = tested on: HCE-Zellen; type: cell-based, human
Method: Die Erfindung wird im Folgenden rein zu Veranschaulichungszwecken anhand der angehängten Figuren und von Ausführungsbeispielen näher erläutert. • Figur 1 Effekt von 0,025% BBG auf die Toxizität von unterschiedlichen Konzentrationen (in Gew.-%) von Benzalkoniumchlorid (BAK) auf HCE-Zellen (HCE = human corneal epithelium, Menschliche Hornhautepithelzellen) bei verschiedenen Einwirkdauern (5, 30, 60 min). Oben: BAK ohne BBG. Unten: BAK mit BBG. Inkubationsmedium: Phosphat-gepufferte Kochsalzlösung (PBS). • Figur 2 Effekt von BBG (in Gew.-%) in unterschiedlichen Konzentrationen auf die Toxizität von BAK bei 0,003% (oben) und 0,008% (unten). PBS = Phosphat-gepufferte Kochsalzlösung; BBS = balanced salt solution (ausgeglichene Salzlösung). • Figur 3 Effekt von BBG (0,025 Gew.-%) auf die Toxizität von Octenidindihydrochlorid (Oct) in unterschiedlichen Konzentrationen (in Gew.-%) nach 5 min Inkubation (oben) und 30 min Inkubation (unten). Octenidin alone = Octenidin allein (ohne BBG). • Figur 4 Effekt von BBG (0,025 %) auf die Toxizität von Cetylpyridiniumchlorid (CPC) in unterschiedlichen Konzentrationen (in Gew.-%) nach 5 min Inkubation (oben) und 30 min Inkubation (unten). CPC alone = Cetylpyridiniumchlorid allein (ohne BBG). • Figur 5 Effekt von BBG (0,025 %) auf die Toxizität von Chlorhexidin (CHex) in Form von Chlorhexidindigluconat in unterschiedlichen Konzentrationen (in Gew.-%) nach 5 min Inkubation (oben) und 30 min Inkubation (unten). Chlorhexidin alone = Chlorhexidin allein (ohne BBG)
Figur 1 zeigt die Wirkung von BBG 0,025% Gew.-% auf die Toxizität von unterschiedlichen Konzentrationen (in Gew.-%) von Benzalkoniumchlorid (BAK) auf HCE-Zellen (HCE = human corneal epithelium, Menschliche Hornhautepithelzellen) bei verschiedenen Einwirkdauern (5, 30, 60 min).
Figur 2 zeigt die Wirkung von BBG (in Gew.-%) in unterschiedlichen Konzentrationen und zwei unterschiedlichen Medien (PBS und BSS) auf die Toxizität von BAK bei 0,003% (oben) und 0,008% (unten) bei HCE-Zellen. Die Schutzwirkung von BBG bei niedrigeren BAK-Konzentrationen setzt schon bei 0,003% BBG ein. Bei höheren BAK-Konzentrationen sind 0,015% notwendig.
Figur 3 zeigt die Wirkung von BBG (0,025 Gew.-%) auf die Toxizität von Octenidin (Oct) Form von Octenidindihydrochlorid in unterschiedlichen Konzentrationen (in Gew.-%) nach 5 min Inkubation (oben) und 30 min Inkubation (unten). Octenidin alone = Octenidin allein (ohne BBG). […] BBG (0,025 Gew.-%) kann diesen Effekt bei 5 min Inkubation (links) bis zu einer Oct-Konzentration von 0,01% (der höchsten getesteten Konzentration) verhindern. Bei 30 min Einwirkzeit (rechts) ist erst ab 0,009 Gew.-% Oct der Schutz nicht mehr maximal.
Die Figuren 4 und 5 zeigen die Wirkung von BBG (0,025 Gew.-%) auf die Toxizität von Cetylpyridiniumchlorid (CPC, Fig. 4) und Chlorhexidin (CHex in Form von Chlorhexidindigluconat, Fig. 5) in unterschiedlichen Konzentrationen (in Gew.-%) nach 5 min Inkubation (jeweils oben) und 30 min Inkubation (jeweils unten).

In the case of `CCOc1ccc(Nc2ccc(C(=C3C=CC(=[N+](CC)Cc4cccc(S(=O)(=O)[O-])c4)C=C3C)c3ccc(N(CC)Cc4cccc(S(=O)(=O)O)c4)cc3C)cc2)cc1` [BBG, Brillantblau G], the “Bakterienwachstum nach 24 h Inkubation” value ([1]; 0,007% G + BAK 0,01%) is reported as “-”, the “Bakterienwachstum nach 24 h Inkubation” value ([1]; 0,007% G + BAK 0,001 %) is reported as “+” and the “Bakterienwachstum nach 24 h Inkubation” value ([1]; 0,007% G + BAK 0,0016%) is reported as “+”. For the same compound, the “Bakterienwachstum nach 24 h Inkubation” value ([1]; 0,007% G + BAK 0,0025%) was “+”, the “Bakterienwachstum nach 24 h Inkubation” value ([1]; 0,007% G + BAK 0,004%) was “-” and the “Bakterienwachstum nach 24 h Inkubation” value ([1]; 0,007% G + BAK 0,006%) was “-”. For the same compound, the “Bakterienwachstum nach 24 h Inkubation” value ([1]; 0,015% G + BAK 0,01%) was “-”, the “Bakterienwachstum nach 24 h Inkubation” value ([1]; 0,015% G + BAK 0,001 %) was “+” and the “Bakterienwachstum nach 24 h Inkubation” value ([1]; 0,015% G + BAK 0,0016%) was “+”. The “Bakterienwachstum nach 24 h Inkubation” value ([1]; 0,015% G + BAK 0,0025%) was “+”, the “Bakterienwachstum nach 24 h Inkubation” value ([1]; 0,015% G + BAK 0,004%) was “+” and the “Bakterienwachstum nach 24 h Inkubation” value ([1]; 0,015% G + BAK 0,006%) was “-”. The “Bakterienwachstum nach 24 h Inkubation” value ([1]; 0,030% G + BAK 0,01%) was “+”, the “Bakterienwachstum nach 24 h Inkubation” value ([1]; 0,030% G + BAK 0,001 %) was “+” and the “Bakterienwachstum nach 24 h Inkubation” value ([1]; 0,030% G + BAK 0,0016%) was “+”. The “Bakterienwachstum nach 24 h Inkubation” value ([1]; 0,030% G + BAK 0,0025%) was “+”, the “Bakterienwachstum nach 24 h Inkubation” value ([1]; 0,030% G + BAK 0,004%) was “+” and the “Bakterienwachstum nach 24 h Inkubation” value ([1]; 0,030% G + BAK 0,006%) was “+”. For the same compound, the “Bakterienwachstum nach 24 h Inkubation” value ([1]; 0,030% G, Kein BAK) was “+”, the “Einfluss auf die bakteriostatische Wirkung von BAK” value ([1]; Gram-negative Bakterien (E. coli), concentration dependent) was “einen etwas größeren Einfluss als BBR” and the “Einfluss auf das Bakterienwachstum” value ([1]; dye alone, no BAK (rechte Spalte, Tabelle 1)) was “beeinflussen das Bakterienwachstum nicht”. For the same compound, the “Bakterienwachstum nach 24 h Inkubation” value ([2]; 0,015% BBG + Octenidin 0,003%) was “+/-”, the “Bakterienwachstum nach 24 h Inkubation” value ([2]; 0,030% BBG + Octenidin 0,005%) was “+/-” and the “Bakterienwachstum nach 24 h Inkubation” value ([2]; 0,030% BBG + Octenidin 0,007%) was “+/-”. For the same compound, the Überleben [3] was “leichten Erniedrigung des Überlebens”, the “Schutzwirkung (=erhöhtes Zellüberleben)” value ([3]; BBG 0,025% with BAK, 60 min Einwirkzeit, PBS (Figur 1)) was “noch deutlich vorhanden” and the “CPC-Konzentration, bis zu der der Schutzeffekt gegeben ist” value ([3]; BBG 0,025 Gew.-% with CPC, 5 min and also 30 min Einwirkzeit (Figur 4)) was ~0,02%. For the same compound, the Schutzeffekt ([3]; BBG 0,025 Gew.-% with Chlorhexidin (Chlorhexidindigluconat), 5 and 30 min, compared with the CPC result (Figur 5)) was “Ähnliches gilt”, the “Oct-Konzentration, bis zu der BBG den zellschädigenden Effekt verhindert” value ([3]; BBG 0,025 Gew.-%, 5 min Inkubation, highest Oct concentration tested (Figur 3)) was ≤ 0,01% and the “Oct-Konzentration, ab der der Schutz nicht mehr maximal ist” value ([3]; BBG 0,025 Gew.-%, 30 min Einwirkzeit (Figur 3)) was ≥ 0,009 Gew.-%. For the same compound, the “Schutzwirkung (zelltoxische Wirkung der Bakteriostatika bei gleichzeitiger Gabe)” value ([3]; dye given together with the bacteriostatic agent) was “stark reduziert”, the “BBG-Konzentration, die für die Schutzwirkung notwendig ist” value ([3]; höhere BAK-Konzentration (BAK 0,008%), PBS and BSS (Figur 2)) was 0,015% and the “BBG-Konzentration, bei der die Schutzwirkung einsetzt” value ([3]; niedrigere BAK-Konzentration (BAK 0,003%), PBS and BSS (Figur 2)) was 0,003%.
